Test results from patent US20240058452A1, “PHARMACEUTICAL COMPOSITION CONTAINING TEMPERATURE-RESPONSIVE IONIC LIQUID” (priority 2019, published 2024).

Columns and labels:
[1] = Confirmation of temperature responsive property of ionic liquid (lower critical solution temperature by absorbance at 450 nm); format: physicochemical; conditions: absorbance 450 nm, heating 20° C.→95° C. (0.5° C./minute)
Procedure: (§1) Whether an ionic liquid is a temperature-responsive ionic liquid having a lower critical solution temperature (LCST-type temperature-responsive ionic liquid) is determined by measuring the absorbance of the liquid at a wavelength within a visible light region while gradually increasing the temperature and observing white turbidity, in other words, an abrupt increase in absorbance at a certain temperature caused by an increase in degree of hydrophobicity. The specific procedure is as follows. First, a mixture of an ionic liquid and water is prepared and the layer state at room temperature is observed. Then, the mixture is placed in a refrigerator of 4° C., sufficiently stirred and allowed to stand still for one hour. The state of the mixture is observed. If the layer state of the ionic liquid-water mixture at room temperature is the same as the layer state at 4° C., the mixture is increased in temperature at a rate of 0.5° C./minute within the range of 20° C. to 95° C. and the absorbance of the mixture is measured at 450 nm. Based on a change in absorbance, whether the ionic liquid thus measured is LCST-type temperature-responsive ionic liquid or not can be checked.
The obtained data of absorbance change can be analyzed by differential calculus according to Tm (nucleic acid melting temperature) analysis program to obtain the lower critical solution temperature. In contrast, if the phase state of the ionic liquid-water mixture at room temperature is different from the state at 4° C., the mixture is increased in temperature at a rate of 0.5° C./minute within the range of 5° C. to 40° C. and the absorbance of the mixture is measured at 450 nm. Based on a change in absorbance, whether the ionic liquid thus measured is LCST-type temperature-responsive ionic liquid or not can be checked.
(§2) More specifically, the temperature responsive property was examined by measuring a absorbance at 450 nm at different temperatures in the following measurement conditions to obtain a change in absorbance.
(0.5° C./minute) • Analysis method: calculation by differential calculus using Tm (nucleic acid melting temperature) analysis program
(§3) (0.5° C./minute) • Analysis method: calculation by differential calculus using Tm (nucleic acid melting temperature) analysis program.
as §3

[2] = cited from earlier work
[3] = tested on: human cultured epidermal model (LabCyte EPI-MODEL12); conditions: 37° C.
Procedure: A human cultured epidermal model (LabCyte EPI-MODEL12, Japan Tissue Engineering Co., Ltd.) was used. The phase on the stratum corneum side of the model was defined as a donor phase, whereas the phase on the stratum basal side of the model was defined as a receptor phase. […] The test was carried out in an incubator of 37° C. […] Each solution (300 μL) was added to the donor phase. […] The Hanks' balanced salt solution was used as the receptor fluid.

[4] = tested on: human cultured epidermal model (LabCyte EPI-MODEL12); conditions: pregabalin 10 mg/mL in 100 mmol/L aqueous solution or dispersion of the ionic liquid, 300 μL donor, 37° C., control in water 252
Procedure: A human cultured epidermal model (LabCyte EPI-MODEL12, Japan Tissue Engineering Co., Ltd.) was used. The phase on the stratum corneum side of the model was defined as a donor phase, whereas the phase on the stratum basal side of the model was defined as a receptor phase. Whether a temperature-responsive ionic liquid enhances the permeation of pregabalin from the donor phase to the receptor phase was examined. The test was carried out in an incubator of 37° C. Pregabalin was dissolved in water, or a 100 mmol/L aqueous solution or water dispersion of a temperature-responsive ionic liquid to a concentration of 10 mg/mL. Each solution (300 μL) was added to the donor phase. Twenty-four hours later, a receptor fluid was sampled and analyzed by LC-MS/MS to obtain the amount of pregabalin permeated. The Hanks' balanced salt solution was used as the receptor fluid.

[5] = mixture of ionic liquid and water as obtained in the synthesis
Procedure: as §1, §2

[6] = V-750, initial waiting 5 minutes
[7] = ionic liquid-water sample, UV1650PC, initial waiting 10 minutes

## diisopropanolammonium decanoate [Reference Example 4-sample]
[1]; [6]
  LCST (lower critical solution temperature): None

## CCc1cccc2c3c([nH]c12)C(CC)(CC(=O)O)OCC3 (stereo not drawn) [etodolac]
[2]
  solubility of etodolac to water: 0.11 mg/mL

## CCCC[P+](CCCC)(CCCC)CCCC.O=C([O-])c1ccc(C(F)(F)F)cc1O [Synthesis Example 1-sample, tetrabutylphosphonium 4-(trifluoromethyl)salicylate]
[1]; [7]
  LCST (lower critical solution temperature): 23.6 °C
[3]; lidocaine hydrochloride monohydrate 10 mg/mL in 100 mmol/L aqueous solution or dispersion of the ionic liquid, control in water 308
  24-hour Cumulative permeation amount of lidocaine hydrochloride monohydrate: 1100 μg/cm^2
[3]; tramadol hydrochloride 10 mg/mL in 100 mmol/L aqueous solution or dispersion of the ionic liquid, control in water 300
  24-hour Cumulative permeation amount of tramadol hydrochloride: 2510 μg/cm^2
[4]
  24-hour Cumulative permeation amount of pregabalin: 3030 μg/cm^2
[5]
  compatibility with water at room temperature: separated from water at room temperature

## CCCC[P+](CCCC)(CCCC)CCCC.O=S(=O)([O-])c1ccc(Cl)cc1 [Synthesis Example 12-sample, tetrabutylphosphonium 4-chlorobenzenesulfonate]
[1]; [7]
  LCST (lower critical solution temperature): 25.6 °C
[5]
  compatibility with water at room temperature: separated from water at room temperature

## CCCCCCCCCC(=O)O.C[N+](C)(C)CCO [Reference Example 3-sample, cholinium decanoate, reference compound]
[1]; [6]
  LCST (lower critical solution temperature): None
[4]
  24-hour Cumulative permeation amount of pregabalin: 354 μg/cm^2

## CCCC[P+](CCCC)(CCCC)CCCC.Cc1ccc(S(=O)(=O)[O-])cc1 [Synthesis Example 16-sample, tetrabutylphosphonium p-toluenesulfonate]
[1]; [7]
  LCST (lower critical solution temperature): 54.6 °C
[5]
  compatibility with water at room temperature: compatible with water at room temperature

## CCCC[P+](CCCC)(CCCC)CCCC.O=S(=O)([O-])c1ccccc1 [Reference Example 2-sample, tetrabutylphosphonium benzenesulfonate]
[1]; [7]
  LCST (lower critical solution temperature): None

## C[N+](C)(C)CCO.O=C([O-])c1ccccc1O [Reference Example 5-sample, cholinium salicylate]
[1]; [6]
  LCST (lower critical solution temperature): None
